Target: Aβ42 (Homo sapiens, UniProt P05067)
Assay: Th-T (thioflavin-T) assay of Aβ42 aggregation
Assay type: biochemical

Chain of Aβ42 (P05067 672-713): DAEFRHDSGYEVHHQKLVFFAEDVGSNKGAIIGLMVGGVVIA

## C=C1CC[C@@H]2[C@](C)(CC[C@H]3O[C@H](C=C(C)C)C[C@@]23C)[C@@H]1Cc1c(OC)oc(CO)c(C(=O)OC)c1=O [Compound 21]
Column suffix _20, reading M101
  Fig. 7a Th-T reading, mean of three wells: 0.9158
Column suffix _20, reading M102
  Fig. 7a Th-T reading, mean of three wells: 0.9188
Column suffix _20, reading M103
  Fig. 7a Th-T reading, mean of three wells: 0.9187
Column suffix _20, reading M104
  Fig. 7a Th-T reading, mean of three wells: 0.9595
Column suffix _20, reading M105
  Fig. 7a Th-T reading, mean of three wells: 0.9387
Column suffix _20, reading M106
  Fig. 7a Th-T reading, mean of three wells: 0.9399
Column suffix _50, measurement M19
  Th-T fluorescence, mean of three wells (Fig. 7a): 0.2078
Column suffix _50, measurement M20
  Th-T fluorescence, mean of three wells (Fig. 7a): 0.2087
Column suffix _50, measurement M21
  Th-T fluorescence, mean of three wells (Fig. 7a): 0.2125
Column suffix _50, measurement M22
  Th-T fluorescence, mean of three wells (Fig. 7a): 0.212
Column suffix _50, measurement M23
  Th-T fluorescence, mean of three wells (Fig. 7a): 0.2107
Column suffix _50, measurement M24
  Th-T fluorescence, mean of three wells (Fig. 7a): 0.2101
Column suffix _50, measurement M25
  Th-T fluorescence, mean of three wells (Fig. 7a): 0.2098
Column suffix _50, measurement M26
  Th-T fluorescence, mean of three wells (Fig. 7a): 0.2113
Column suffix _50, measurement M27
  Th-T fluorescence, mean of three wells (Fig. 7a): 0.2118
Column suffix _50, measurement M28
  Th-T fluorescence, mean of three wells (Fig. 7a): 0.2093
Column suffix _50, measurement M29
  Th-T fluorescence, mean of three wells (Fig. 7a): 0.2091
Column suffix _50, reading M1
  Th-T assay signal, mean of three wells (Fig. 7a): 0.2216
Column suffix _50, reading M2
  Th-T assay signal, mean of three wells (Fig. 7a): 0.219
Column suffix _50, reading M3
  Th-T assay signal, mean of three wells (Fig. 7a): 0.2148
Column suffix _50, reading M4
  Th-T assay signal, mean of three wells (Fig. 7a): 0.2093
Column suffix _50, reading M5
  Th-T assay signal, mean of three wells (Fig. 7a): 0.2111
Column suffix _50, reading M6
  Th-T assay signal, mean of three wells (Fig. 7a): 0.209
Column suffix _50, reading M7
  Th-T assay signal, mean of three wells (Fig. 7a): 0.2096
Column suffix _50, reading M8
  Th-T assay signal, mean of three wells (Fig. 7a): 0.2075
Column suffix _50, reading M9
  Th-T assay signal, mean of three wells (Fig. 7a): 0.2085
Column suffix _50, reading M10
  Th-T assay signal, mean of three wells (Fig. 7a): 0.2097
Column suffix _50, reading M11
  Th-T assay signal, mean of three wells (Fig. 7a): 0.2085
Column suffix _50, reading M12
  Th-T assay signal, mean of three wells (Fig. 7a): 0.2082
Column suffix _50, reading M13
  Th-T assay signal, mean of three wells (Fig. 7a): 0.2085
Column suffix _50, reading M14
  Th-T assay signal, mean of three wells (Fig. 7a): 0.2061
Column suffix _50, reading M15
  Th-T assay signal, mean of three wells (Fig. 7a): 0.2099
Column suffix _50, reading M16
  Th-T assay signal, mean of three wells (Fig. 7a): 0.2095
Column suffix _50, reading M17
  Th-T assay signal, mean of three wells (Fig. 7a): 0.2108
Column suffix _50, reading M18
  Th-T assay signal, mean of three wells (Fig. 7a): 0.2093
Column suffix _50, reading M85
  Fig. 7a Th-T reading, mean of three wells: 0.38
Column suffix _50, reading M86
  Fig. 7a Th-T reading, mean of three wells: 0.3921
Column suffix _50, reading M87
  Fig. 7a Th-T reading, mean of three wells: 0.401
Column suffix _50, reading M88
  Fig. 7a Th-T reading, mean of three wells: 0.4081
Column suffix _50, reading M89
  Fig. 7a Th-T reading, mean of three wells: 0.4167
Column suffix _50, reading M90
  Fig. 7a Th-T reading, mean of three wells: 0.4233
Column suffix _50, reading M91
  Fig. 7a Th-T reading, mean of three wells: 0.4313
Column suffix _50, reading M92
  Fig. 7a Th-T reading, mean of three wells: 0.4386
Column suffix _50, reading M93
  Fig. 7a Th-T reading, mean of three wells: 0.4449
Column suffix _50, reading M94
  Fig. 7a Th-T reading, mean of three wells: 0.4505
Column suffix _50, reading M95
  Fig. 7a Th-T reading, mean of three wells: 0.4544
Column suffix _50, reading M96
  Fig. 7a Th-T reading, mean of three wells: 0.4583
Column suffix _50, reading M97
  Fig. 7a Th-T reading, mean of three wells: 0.4639
Column suffix _50, reading M98
  Fig. 7a Th-T reading, mean of three wells: 0.4638
Column suffix _50, reading M99
  Fig. 7a Th-T reading, mean of three wells: 0.4696
Column suffix _50, reading M100
  Fig. 7a Th-T reading, mean of three wells: 0.4671
Column suffix _50, reading M101
  Fig. 7a Th-T reading, mean of three wells: 0.4718
Column suffix _50, reading M102
  Fig. 7a Th-T reading, mean of three wells: 0.4727
Column suffix _50, reading M103
  Fig. 7a Th-T reading, mean of three wells: 0.4762
Column suffix _50, reading M104
  Fig. 7a Th-T reading, mean of three wells: 0.4757
Column suffix _50, reading M105
  Fig. 7a Th-T reading, mean of three wells: 0.4769
Column suffix _50, reading M106
  Fig. 7a Th-T reading, mean of three wells: 0.4817
Compound at 10, reading M41 of time course
  Th-T fluorescence, mean of three wells: 0.2566
Compound at 10, reading M42 of time course
  Th-T fluorescence, mean of three wells: 0.2579
Compound at 10, reading M43 of time course
  Th-T fluorescence, mean of three wells: 0.2567
Compound at 10, reading M44 of time course
  Th-T fluorescence, mean of three wells: 0.2585
Compound at 10, reading M45 of time course
  Th-T fluorescence, mean of three wells: 0.2609
Compound at 10, reading M46 of time course
  Th-T fluorescence, mean of three wells: 0.2644
Compound at 10, reading M47 of time course
  Th-T fluorescence, mean of three wells: 0.2626
Compound at 10, reading M48 of time course
  Th-T fluorescence, mean of three wells: 0.2676
Compound at 10, reading M49 of time course
  Th-T fluorescence, mean of three wells: 0.2662
Compound at 10, reading M50 of time course
  Th-T fluorescence, mean of three wells: 0.2709
Compound at 10, reading M51 of time course
  Th-T fluorescence, mean of three wells: 0.2759
Compound at 10, reading M52 of time course
  Th-T fluorescence, mean of three wells: 0.2782
Compound at 10, reading M53 of time course
  Th-T fluorescence, mean of three wells: 0.2826
Compound at 10, reading M54 of time course
  Th-T fluorescence, mean of three wells: 0.2883
Compound at 10, reading M55 of time course
  Th-T fluorescence, mean of three wells: 0.2969
Compound at 10, reading M56 of time course
  Th-T fluorescence, mean of three wells: 0.3032
Compound at 10, reading M57 of time course
  Th-T fluorescence, mean of three wells: 0.3204
Compound at 10, reading M58 of time course
  Th-T fluorescence, mean of three wells: 0.3339
Compound at 10, reading M59 of time course
  Th-T fluorescence, mean of three wells: 0.3536
Compound at 10, reading M60 of time course
  Th-T fluorescence, mean of three wells: 0.3831
Compound at 10, reading M61 of time course
  Th-T fluorescence, mean of three wells: 0.414
Compound at 10, reading M62 of time course
  Th-T fluorescence, mean of three wells: 0.4619
Compound at 20, reading M41 of time course
  Th-T fluorescence, mean of three wells: 0.2134
Compound at 20, reading M42 of time course
  Th-T fluorescence, mean of three wells: 0.2125
Compound at 20, reading M43 of time course
  Th-T fluorescence, mean of three wells: 0.2115
Compound at 20, reading M44 of time course
  Th-T fluorescence, mean of three wells: 0.212
Compound at 20, reading M45 of time course
  Th-T fluorescence, mean of three wells: 0.2129
Compound at 20, reading M46 of time course
  Th-T fluorescence, mean of three wells: 0.214
Compound at 20, reading M47 of time course
  Th-T fluorescence, mean of three wells: 0.2155
Compound at 20, reading M48 of time course
  Th-T fluorescence, mean of three wells: 0.2155
Compound at 20, reading M49 of time course
  Th-T fluorescence, mean of three wells: 0.2153
Compound at 20, reading M50 of time course
  Th-T fluorescence, mean of three wells: 0.2164
Compound at 20, reading M51 of time course
  Th-T fluorescence, mean of three wells: 0.2208
Compound at 20, reading M52 of time course
  Th-T fluorescence, mean of three wells: 0.2184
Compound at 20, reading M53 of time course
  Th-T fluorescence, mean of three wells: 0.2214
Compound at 20, reading M54 of time course
  Th-T fluorescence, mean of three wells: 0.2246
Compound at 20, reading M55 of time course
  Th-T fluorescence, mean of three wells: 0.224
Compound at 20, reading M56 of time course
  Th-T fluorescence, mean of three wells: 0.2282
Compound at 20, reading M57 of time course
  Th-T fluorescence, mean of three wells: 0.2293
Compound at 20, reading M58 of time course
  Th-T fluorescence, mean of three wells: 0.2297
Compound at 20, reading M59 of time course
  Th-T fluorescence, mean of three wells: 0.2309
Compound at 20, reading M60 of time course
  Th-T fluorescence, mean of three wells: 0.2314
Compound at 20, reading M61 of time course
  Th-T fluorescence, mean of three wells: 0.2372
Compound at 20, reading M62 of time course
  Th-T fluorescence, mean of three wells: 0.2381
Compound at 50, reading M41 of time course
  Th-T fluorescence, mean of three wells: 0.2143
Compound at 50, reading M42 of time course
  Th-T fluorescence, mean of three wells: 0.2133
Compound at 50, reading M43 of time course
  Th-T fluorescence, mean of three wells: 0.2141
Compound at 50, reading M44 of time course
  Th-T fluorescence, mean of three wells: 0.2135
Compound at 50, reading M45 of time course
  Th-T fluorescence, mean of three wells: 0.2151
Compound at 50, reading M46 of time course
  Th-T fluorescence, mean of three wells: 0.2145
Compound at 50, reading M47 of time course
  Th-T fluorescence, mean of three wells: 0.2129
Compound at 50, reading M48 of time course
  Th-T fluorescence, mean of three wells: 0.2151
Compound at 50, reading M49 of time course
  Th-T fluorescence, mean of three wells: 0.2127
Compound at 50, reading M50 of time course
  Th-T fluorescence, mean of three wells: 0.2161
Compound at 50, reading M51 of time course
  Th-T fluorescence, mean of three wells: 0.2181
Compound at 50, reading M52 of time course
  Th-T fluorescence, mean of three wells: 0.2182
Compound at 50, reading M53 of time course
  Th-T fluorescence, mean of three wells: 0.2185

From PMC7156458, “Synthetic biology based construction of biological activity-related library of fungal decalin-containing diterpenoid pyrones” (Nature Communications, 2020)
